Results taken from US20260364079A1 (Principia Biopharma Inc., priority 2022, published 2026).

Assay: phase 1/2 study in relapsed/refractory ITP (NCT03395210), safety
Details: for Abdominal discomfort / Abdominal distension / Abdominal pain / Abnormal dreams / Akathisia / Alopecia / Anemia / Any TEAE / Arthralgia / Arthropod bite / Back pain / Conjunctival hemorrhage / Contusion / Costochondritis / Cough / Decreased appetite / Defecation urgency / Diarrhea / Dizziness / Dyspepsia / Dyspnea / Dyspnea exertional / Edema / Epigastric discomfort / Epistaxis / Erysipelas / Fatigue / Frequent bowel movements / Gingival bleeding / Headache / Heavy menstrual bleeding / Hypoesthesia / Hypophosphatemia / I lot flush / Ilypokalemia / Increased white blood cell count / Maculo-papular rash / Malaise / Micturition urgency / Muscle spasms / Myalgia / Nasal congestion / Nasopharyngitis / Nausea / Peripheral swelling / Petechiae / Pruritus / Purpura / Rash / Thrombocytopena / Upper abdominal pain / Upper respiratory tract infection / Urinary tract infection / Vomiting: TEAE any cause
From the text: The Safety Population was used for all safety analyses.
Pre-existing conditions that worsened during a study were reported as AEs.
Safety was graded per NCI CTCAE, version 4.0.

[1] = 45 patients initiating 400 mg bid
[2] = any cause, unrelated to rilzabrutinib treatment, patients
[3] = baseline through end of treatment

## CC(C)(C=C(C#N)C(=O)N1CCC[C@@H](n2nc(-c3ccc(Oc4ccccc4)cc3F)c3c(N)ncnc32)C1)N1CCN(C2COC2)CC1 (mixture of isomers) [rilzabrutinib, (R)-2-[3-[4-amino-3-(2-fluoro-4-phenoxy-phenyl)pyrazolo[3,4-d]pyrimidin-1-yl]piperidine-1-carbonyl]-4-methyl-4-[4-(oxetan-3-yl)piperazin-1-yl]pent-2-enenitrile]
200 mg qd
  Rescue medication use: 1 patient
300 mg bid, patients
  Rescue medication use: 1
400 mg bid, patients
  Rescue medication use: 5
[1]
  dose reductions/interruptions due to adverse events: no dose reductions/interruptions due to adverse events
  dose-limiting toxicities: no dose-limiting toxicities
ITP patients
  tolerability: well-tolerated
  treatment-related bleeding or thrombotic events: no reported treatment-related bleeding or thrombotic events
Any grade
  Abdominal discomfort: 1 (2) number of patients (percent)
  Abdominal distension: 6 (10) number of patients (percent)
  Abdominal pain: 3 (5) number of patients (percent)
  Abnormal dreams: 1 (2) number of patients (percent)
  Akathisia: 1 (2) number of patients (percent)
  Alopecia: 2 (3) number of patients (percent)
  Anemia: 4 (7) number of patients (percent)
  Any TEAE: 48 (80) number of patients (percent)
  Arthralgia: 5 (8) number of patients (percent)
  Arthropod bite: 3 (5) number of patients (percent)
  Back pain: 8 (13) number of patients (percent)
  Conjunctival hemorrhage: 5 (8) number of patients (percent)
  Contusion: 11 (18) number of patients (percent)
  Costochondritis: 2 (3) number of patients (percent)
  Cough: 2 (3) number of patients (percent)
  Decreased appetite: 1 (2) number of patients (percent)
  Defecation urgency: 1 (2) number of patients (percent)
  Diarrhea: 22 (37) number of patients (percent)
  Dizziness: 2 (3) number of patients (percent)
  Dyspepsia: 4 (7) number of patients (percent)
  Dyspnea: 2 (3) number of patients (percent)
  Dyspnea exertional: 2 (3) number of patients (percent)
  Edema: 2 (3) number of patients (percent)
  Epigastric discomfort: 1 (2) number of patients (percent)
  Epistaxis: 2 (3) number of patients (percent)
  Erysipelas: 1 (2) number of patients (percent)
  Fatigue: 12 (20) number of patients (percent)
  Frequent bowel movements: 1 (2) number of patients (percent)
  Gingival bleeding: 3 (5) number of patients (percent)
  Headache: 7 (12) number of patients (percent)
  Heavy menstrual bleeding: 2 (3) number of patients (percent)
  Hypoesthesia: 1 (2) number of patients (percent)
  Hypophosphatemia: 2 (3) number of patients (percent)
  I lot flush: 1 (2) number of patients (percent)
  Ilypokalemia: 1 (2) number of patients (percent)
  Increased white blood cell count: 1 (2) number of patients (percent)
  Maculo-papular rash: 1 (2) number of patients (percent)
  Malaise: 1 (2) number of patients (percent)
  Micturition urgency: 1 (2) number of patients (percent)
  Muscle spasms: 2 (3) number of patients (percent)
  Myalgia: 1 (2) number of patients (percent)
  Nasal congestion: 2 (3) number of patients (percent)
  Nasopharyngitis: 3 (5) number of patients (percent)
  Nausea: 21 (35) number of patients (percent)
  Peripheral swelling: 3 (5) number of patients (percent)
  Petechiae: 4 (7) number of patients (percent)
  Pruritus: 2 (3) number of patients (percent)
  Purpura: 2 (3) number of patients (percent)
  Rash: 3 (5) number of patients (percent)
  Thrombocytopena: 2 (3) number of patients (percent)
  Upper abdominal pain: 3 (5) number of patients (percent)
  Upper respiratory tract infection: 3 (5) number of patients (percent)
  Urinary tract infection: 2 (3) number of patients (percent)
  Vomiting: 4 (7) number of patients (percent)
  ≥1 treatment-related, treatment-emergent adverse event: 52%
Grade 1
  Abdominal discomfort: 1 (2) number of patients (percent)
  Abdominal distension: 6 (10) number of patients (percent)
  Abdominal pain: 1 (2) number of patients (percent)
  Abnormal dreams: 1 (2) number of patients (percent)
  Akathisia: 1 (2) number of patients (percent)
  Alopecia: 2 (3) number of patients (percent)
  Anemia: — (represents zero events)
  Any TEAE: 43 (72) number of patients (percent)
  Arthralgia: 3 (5) number of patients (percent)
  Arthropod bite: 3 (5) number of patients (percent)
  Back pain: 7 (12) number of patients (percent)
  Conjunctival hemorrhage: 5 (8) number of patients (percent)
  Contusion: 7 (12) number of patients (percent)
  Costochondritis: 2 (3) number of patients (percent)
  Cough: 2 (3) number of patients (percent)
  Decreased appetite: 1 (2) number of patients (percent)
  Defecation urgency: — (represents zero events)
  Diarrhea: 19 (32) number of patients (percent)
  Dizziness: 2 (3) number of patients (percent)
  Dyspepsia: 3 (5) number of patients (percent)
  Dyspnea: 2 (3) number of patients (percent)
  Dyspnea exertional: 2 (3) number of patients (percent)
  Edema: 2 (3) number of patients (percent)
  Epigastric discomfort: — (represents zero events)
  Epistaxis: 2 (3) number of patients (percent)
  Erysipelas: — (represents zero events)
  Fatigue: 10 (17) number of patients (percent)
  Frequent bowel movements: — (represents zero events)
  Gingival bleeding: 3 (5) number of patients (percent)
  Headache: 7 (12) number of patients (percent)
  Heavy menstrual bleeding: 1 (2) number of patients (percent)
  Hypoesthesia: — (represents zero events)
  Hypophosphatemia: — (represents zero events)
  I lot flush: — (represents zero events)
  Ilypokalemia: 1 (2) number of patients (percent)
  Increased white blood cell count: — (represents zero events)
  Maculo-papular rash: 1 (2) number of patients (percent)
  Malaise: 1 (2) number of patients (percent)
  Micturition urgency: 1 (2) number of patients (percent)
  Muscle spasms: 2 (3) number of patients (percent)
  Myalgia: 1 (2) number of patients (percent)
  Nasal congestion: 1 (2) number of patients (percent)
  Nasopharyngitis: 2 (3) number of patients (percent)
  Nausea: 18 (30) number of patients (percent)
  Peripheral swelling: 3 (5) number of patients (percent)
  Petechiae: 4 (7) number of patients (percent)
  Pruritus: 1 (2) number of patients (percent)
  Purpura: 2 (3) number of patients (percent)
  Rash: 1 (2) number of patients (percent)
  Thrombocytopena: — (represents zero events)
  Upper abdominal pain: 2 (3) number of patients (percent)
  Upper respiratory tract infection: 2 (3) number of patients (percent)
  Urinary tract infection: 1 (2) number of patients (percent)
  Vomiting: 3 (5) number of patients (percent)
Grade 2
  Abdominal discomfort: — (represents zero events)
  Abdominal distension: — (represents zero events)
  Abdominal pain: 2 (3) number of patients (percent)
  Abnormal dreams: — (represents zero events)
  Akathisia: — (represents zero events)
  Alopecia: — (represents zero events)
  Anemia: 2 (3) number of patients (percent)
  Any TEAE: 30 (50) number of patients (percent)
  Arthralgia: 2 (3) number of patients (percent)
  Arthropod bite: — (represents zero events)
  Back pain: 1 (2) number of patients (percent)
  Conjunctival hemorrhage: — (represents zero events)
  Contusion: 3 (5) number of patients (percent)
  Costochondritis: — (represents zero events)
  Cough: — (represents zero events)
  Decreased appetite: — (represents zero events)
  Defecation urgency: 1 (2) number of patients (percent)
  Diarrhea: 3 (5) number of patients (percent)
  Dizziness: — (represents zero events)
  Dyspepsia: 1 (2) number of patients (percent)
  Dyspnea: — (represents zero events)
  Dyspnea exertional: — (represents zero events)
  Edema: — (represents zero events)
  Epigastric discomfort: 1 (2) number of patients (percent)
  Epistaxis: — (represents zero events)
  Erysipelas: 1 (2) number of patients (percent)
  Fatigue: 2 (3) number of patients (percent)
  Frequent bowel movements: 1 (2) number of patients (percent)
  Headache: — (represents zero events)
  Heavy menstrual bleeding: 1 (2) number of patients (percent)
  Hypoesthesia: 1 (2) number of patients (percent)
  Hypophosphatemia: 2 (3) number of patients (percent)
  I lot flush: 1 (2) number of patients (percent)
  Ilypokalemia: — (represents zero events)
  Increased white blood cell count: 1 (2) number of patients (percent)
  Maculo-papular rash: — (represents zero events)
  Malaise: — (represents zero events)
  Micturition urgency: — (represents zero events)
  Muscle spasms: — (represents zero events)
  Myalgia: — (represents zero events)
  Nasal congestion: 1 (2) number of patients (percent)
  Nasopharyngitis: 1 (2) number of patients (percent)
  Nausea: 3 (5) number of patients (percent)
  Peripheral swelling: — (represents zero events)
  Petechiae: — (represents zero events)
  Pruritus: 1 (2) number of patients (percent)
  Purpura: — (represents zero events)
  Rash: 2 (3) number of patients (percent)
  Thrombocytopena: — (represents zero events)
  Upper abdominal pain: 1 (2) number of patients (percent)
  Upper respiratory tract infection: 1 (2) number of patients (percent)
  Urinary tract infection: 1 (2) number of patients (percent)
  Vomiting: 1 (2) number of patients (percent)
Grade 3/4
  Abdominal discomfort: — (represents zero events)
  Abdominal distension: — (represents zero events)
  Abdominal pain: — (represents zero events)
  Abnormal dreams: — (represents zero events)
  Akathisia: — (represents zero events)
  Alopecia: — (represents zero events)
  Anemia: 2 (3) number of patients (percent)
  Arthralgia: — (represents zero events)
  Arthropod bite: — (represents zero events)
  Back pain: — (represents zero events)
  Conjunctival hemorrhage: — (represents zero events)
  Contusion: 1 (2) number of patients (percent)
  Costochondritis: — (represents zero events)
  Cough: — (represents zero events)
  Decreased appetite: — (represents zero events)
  Defecation urgency: — (represents zero events)
  Diarrhea: — (represents zero events)
  Dizziness: — (represents zero events)
  Dyspepsia: — (represents zero events)
  Dyspnea: — (represents zero events)
  Dyspnea exertional: — (represents zero events)
  Edema: — (represents zero events)
  Epigastric discomfort: — (represents zero events)
  Epistaxis: — (represents zero events)
  Erysipelas: — (represents zero events)
  Fatigue: — (represents zero events)
  Frequent bowel movements: — (represents zero events)
  Headache: — (represents zero events)
  Heavy menstrual bleeding: — (represents zero events)
  Hypoesthesia: — (represents zero events)
  Hypophosphatemia: — (represents zero events)
  I lot flush: — (represents zero events)
  Ilypokalemia: — (represents zero events)
  Increased white blood cell count: — (represents zero events)
  Maculo-papular rash: — (represents zero events)
  Malaise: — (represents zero events)
  Micturition urgency: — (represents zero events)
  Muscle spasms: — (represents zero events)
  Myalgia: — (represents zero events)
  Nasal congestion: — (represents zero events)
  Nasopharyngitis: — (represents zero events)
  Nausea: — (represents zero events)
  Peripheral swelling: — (represents zero events)
  Petechiae: — (represents zero events)
  Pruritus: — (represents zero events)
  Purpura: — (represents zero events)
  Rash: — (represents zero events)
  Thrombocytopena: 2 (3) number of patients (percent)
  Upper abdominal pain: — (represents zero events)
  Upper respiratory tract infection: — (represents zero events)
  Urinary tract infection: — (represents zero events)
  Vomiting: — (represents zero events)
All patients
  Rescue medication use: seven
Any cause, unrelated to rilzabrutinib treatment
  grade 3 anemia: 2 n
[2]
  grade 3 abnormal alanine aminotransferase levels: one each
  grade 3 contusion: one each
  grade 3 gastrointestinal hemorrhage: one each
  grade 3 hematoma: one each
  grade 3 immune thrombocytopenia: one each
  grade 3 myelofibrosis: one each
  grade 3 thrombocytopenia: one each
  grade 4 Evans syndrome: one each
  grade 4 thrombocytopenia: one each
Baseline or week 24/EOS, n=34
  grade 3, 4, or 5 bleeding events (IBLS Bleeding Scale): no grade 3, 4, or 5 bleeding events
[3]
  IBLS bleeding scale scores within each domain: no increase in bleeding from baseline through the end of treatment
  IBLS bleeding scale scores, skin and oral sites: improved at skin and oral sites
